{"source": "paper PMC9149120", "about": "(Cell, 2022)", "key": {"SH-SY5Y cells [1]": {"system": "SH-SY5Y cells", "test": "Staurosporine", "format": "cell-based", "settings": "0.5 μM STS, n = 3; Figure S4F"}, "HT 22 cells": {"system": "HT 22 cells", "test": "TNF-α and Z-VAD-induced necroptosis, Alamar blue", "format": "cell-based", "settings": "1 ng/mL TNF-α with 50 μM z-VAD, n = 3; Figure S4G"}, "human cortical neurons": {"system": "human cortical neurons", "test": "Human α-syn PFF-induced cell death, Hoechst/PI staining", "format": "cell-based", "settings": "0.5 or 1 μM, pre-incubated 1 h, human α-syn PFF 14 days, n = 4; Figure 3G"}, "[2]": {"system": "PC-3 prostate cancer cells", "test": "Tumor cell viability alone or with alantolactone", "format": "cell-based", "settings": "0.5–8 μM combined with 10 μM ATL, 72 h, n = 3; Figure S5D"}, "cortical neurons": {"system": "cortical neurons", "test": "Nuclear translocation of AIF and PAAN/MIF after α-syn PFF", "format": "cell-based, mouse", "settings": "n = 3"}, "primary cortical neurons": {"system": "primary cortical neurons", "test": "α-syn PFF-induced PARP activation", "format": "cell-based, mouse", "settings": "AP5 50 μM or NBQX 10 μM pre-incubated 1 h, α-syn PFF 3 days, n = 3; Figure S3A"}, "PAAN/MIF nuclease": {"molecular_target": "T1, PAAN/MIF nuclease (Homo sapiens, UniProt P14174)", "T1 sequence (P14174 1-115)": "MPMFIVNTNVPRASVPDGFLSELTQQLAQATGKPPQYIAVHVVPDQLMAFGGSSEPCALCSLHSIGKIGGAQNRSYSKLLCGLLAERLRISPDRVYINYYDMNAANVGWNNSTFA", "test": "In vitro PAAN/MIF nuclease assay", "format": "biochemical", "settings": "for inhibition of PAAN/MIF nuclease activity: PS30 substrate, indicated doses, n = 4, Figure 4H; for inhibition of the nuclease activity of PAAN/MIF by MIF tautomerase inhibitors: 10 μM p-425, 50 μM ISO-1, 10 μM AV411, n = 5, Figure 4I"}, "SH-SY5Y cells [3]": {"system": "SH-SY5Y cells", "test": "MNNG-induced parthanatic cell death, Alamar blue viability", "format": "cell-based", "settings": "for inhibition of MNNG-induced parthanatic cell death: 0.5 or 1 μM, 50 μM MNNG 15 min, n = 4, Figure S5I; for inhibition of parthanatic cell death by MIF tautomerase inhibitors: 10 μM p-425, 50 μM ISO-1, 10 μM AV411, 50 μM MNNG 15 min, n = 5, Figure 4J"}}, "note": "Peptide text beside a SMILES is read from it. * marks the point of attachment. Cbz = O=C(OCc1ccccc1)*; CH2F = FC*"}
{"smiles": "C[C@]1(c2nc3c(C(N)=O)cccc3[nH]2)CCCN1", "note": "[ABT-888]", "values": [{"measurement": "inhibition of staurosporine (STS)-induced apoptotic cell death", "setting": "SH-SY5Y cells [1]", "result": "did not inhibit"}, {"measurement": "prevention of TNF-α and Z-VAD-induced necroptosis", "setting": "HT 22 cells", "result": "not prevented"}, {"measurement": "protection against cell death", "setting": "human cortical neurons", "result": "protected against cell death"}, {"measurement": "tumor toxicity induced by alantolactone (ATL)", "setting": "[2]", "result": "enhancement of tumor toxicity"}, {"measurement": "α-syn PFF-induced nuclear translocation of PAAN/MIF and AIF", "setting": "cortical neurons; ABT-888 1 μM, Figure 2A", "result": "attenuated"}]}
{"smiles": "NC(CCCP(=O)(O)O)C(=O)O", "note": "(centres unmarked) [AP5]", "values": [{"measurement": "nuclear translocation of AIF and MIF", "setting": "cortical neurons; AP5 50 μM or NBQX 10 μM pretreatment, Figure S3B", "result": "attenuated"}, {"measurement": "α-syn PFF-induced PARP activation", "setting": "primary cortical neurons", "result": "inhibited"}]}
{"smiles": "C=CC[C@@H]1/C=C(\\C)C[C@H](C)C[C@H](OC)[C@H]2O[C@@](O)(C(=O)C(=O)N3CCCC[C@H]3C(=O)O[C@H](/C(C)=C/[C@@H]3CC[C@@H](O)[C@H](OC)C3)[C@H](C)[C@@H](O)CC1=O)[C@H](C)C[C@@H]2OC", "note": "[FK506]", "values": [{"measurement": "inhibition of PAAN/MIF nuclease activity", "setting": "PAAN/MIF nuclease", "result": "failed to inhibit"}, {"measurement": "inhibition of MNNG-induced parthanatic cell death", "setting": "SH-SY5Y cells [3]", "result": "failed to inhibit"}]}
{"smiles": "COC(=O)CC1CC(c2ccc(O)cc2)=NO1", "note": "(centres unmarked) [ISO-1]", "values": [{"measurement": "inhibition of the nuclease activity of PAAN/MIF by MIF tautomerase inhibitors", "setting": "PAAN/MIF nuclease", "result": "failed to inhibit"}, {"measurement": "inhibition of parthanatic cell death by MIF tautomerase inhibitors", "setting": "SH-SY5Y cells [3]", "result": "failed to inhibit"}]}
{"smiles": "CC(C)C(=O)c1c(C(C)C)nn2ccccc12", "note": "[Ibudilast]", "values": [{"measurement": "inhibition of the nuclease activity of PAAN/MIF by MIF tautomerase inhibitors", "setting": "PAAN/MIF nuclease", "result": "failed to inhibit"}, {"measurement": "inhibition of parthanatic cell death by MIF tautomerase inhibitors", "setting": "SH-SY5Y cells [3]", "result": "failed to inhibit"}]}
{"smiles": "CN1C(=O)C(Cc2c[nH]c3ccccc23)NC1=S", "note": "(centres unmarked) [Nec-1]", "values": [{"measurement": "prevention of TNF-α and Z-VAD-induced necroptosis", "setting": "HT 22 cells", "result": "prevented necroptosis"}]}
{"smiles": "COC(=O)C[C@H](NC(=O)[C@H](C)NC(=O)[C@@H](NC(=O)OCc1ccccc1)C(C)C)C(=O)CF", "note": "[Z-VAD] (Cbz-Val-Ala-Asp(OMe)-CH2F)", "values": [{"measurement": "inhibition of staurosporine (STS)-induced apoptotic cell death", "setting": "SH-SY5Y cells [1]", "result": "prevented"}]}
{"smiles": "CO[C@H]1C[C@@H]2CC[C@@H](C)[C@@](O)(O2)C(=O)C(=O)N2CCCC[C@H]2C(=O)O[C@H]([C@H](C)C[C@@H]2CC[C@@H](O)[C@H](OC)C2)CC(=O)[C@H](C)/C=C(\\C)[C@@H](O)[C@@H](OC)C(=O)[C@H](C)C[C@H](C)/C=C/C=C/C=C/1C", "note": "[rapamycin]", "values": [{"measurement": "inhibition of PAAN/MIF nuclease activity", "setting": "PAAN/MIF nuclease", "result": "failed to inhibit"}, {"measurement": "inhibition of MNNG-induced parthanatic cell death", "setting": "SH-SY5Y cells [3]", "result": "failed to inhibit"}]}
